Activity calls are given as the source filed them. The calls are words filed in the database; no cut-off is given here.
Experiments:
[1] = tested on: AGS; assay: Antiproliferative activity against human AGS cells assessed as cell growth inhibition by CCK8 assay; assay type: functional, cell-based
[2] = tested on: MDA-MB-231; assay: Antiproliferative activity against human MDA-MB-231 cells assessed as cell growth inhibition by CCK8 assay; assay type: functional, cell-based
[3] = tested on: NCI-H1299; assay: Antiproliferative activity against human H1299 cells assessed as cell growth inhibition by CCK8 assay; assay type: functional, cell-based
[4] = tested on: A-375; assay: Antiproliferative activity against human A375 cells assessed as cell growth inhibition by CCK8 assay; assay type: functional, cell-based
[5] = tested on: HCC827; assay: Antiproliferative activity against human HCC827 cells assessed as cell growth inhibition by CCK8 assay; assay type: functional, cell-based
[6] = tested on: A549; assay: Induction of apoptosis in human A549 cells assessed as live cells at 5 uM by FITC staining based flow cytometry (reference value: 96 to 96.6 %); assay type: functional
[7] = tested on: HT-29; assay: Inhibition of cell migration in human HT-29 cells incubated for 48 hrs by wound healing assay; assay type: functional, cell-based
[8] = tested on: A549; assay: Induction of apoptosis in human A549 cells assessed as late apoptotic cells at 5 uM by FITC staining based flow cytometry (reference value: 2.12 to 2.33 %); assay type: functional
[9] = Selectivity index, ratio of IC50 for human MRC5 cells to IC50 for human HT-29 cells assessed as cell growth inhibition by CCK8 assay; assay type: toxicity; settings: MRC5 cells versus HT-29 cells, read-out: Ratio IC50
[10] = tested on: SK-OV-3; assay: Inhibition of cell migration in human SKOV3 cells incubated for 48 hrs by wound healing assay; assay type: functional, cell-based
[11] = tested on: A549; assay: Induction of apoptosis in human A549 cells assessed as live cells at 10 uM by FITC staining based flow cytometry (reference value: 96 to 96.6 %); assay type: functional
[12] = Selectivity index, ratio of IC50 for human MRC5 cells to IC50 for human A549 cells assessed as cell growth inhibition by CCK8 assay; assay type: toxicity; settings: MRC5 cells versus A549 cells, read-out: Ratio IC50
[13] = Selectivity index, ratio of IC50 for human MRC5 cells to IC50 for human HepG2 cells assessed as cell growth inhibition by CCK8 assay; assay type: toxicity; settings: MRC5 cells versus HepG2 cells, read-out: Ratio IC50
[14] = tested on: A549; assay: Induction of apoptosis in human A549 cells assessed as early apoptotic cells at 5 uM by FITC staining based flow cytometry (reference value: 0.34 to 0.39 %); assay type: functional
[15] = tested on: HepG2; assay: Inhibition of cell migration in human HepG2 cells incubated for 48 hrs by wound healing assay; assay type: functional, cell-based
[16] = tested on: MRC5; assay: Cytotoxicity against human MRC5 cells assessed as cell growth inhibition by CCK8 assay; assay type: cell-based
[17] = tested on: A549; assay: Induction of apoptosis in human A549 cells assessed as late apoptotic cells at 10 uM by FITC staining based flow cytometry (reference value: 2.12 to 2.33 %); assay type: functional
[18] = tested on: A549; assay: Inhibition of cell migration in human A549 cells incubated for 48 hrs by wound healing assay; assay type: functional, cell-based
[19] = tested on: A549; assay: Induction of apoptosis in human A549 cells assessed as necrotic cells at 5 uM by FITC staining based flow cytometry (reference value: 0.78 to 1.49 %); assay type: functional
[20] = Selectivity index, ratio of IC50 for human MRC5 cells to IC50 for human SKOV3 cells assessed as cell growth inhibition by CCK8 assay; assay type: toxicity; settings: MRC5 cells versus SKOV3 cells, read-out: Ratio IC50
[21] = tested on: A549; assay: Inhibition of cell migration in human A549 cells at 0.6 uM incubated for 48 hrs by wound healing assay relative to control; assay type: functional; settings: A549, 48 h
[22] = tested on: A549; assay: Induction of apoptosis in human A549 cells assessed as early apoptotic cells at 10 uM by FITC staining based flow cytometry (reference value: 0.34 to 0.39 %); assay type: functional
[23] = tested on: A549; assay: Induction of apoptosis in human A549 cells assessed as necrotic cells at 10 uM by FITC staining based flow cytometry (reference value: 0.78 to 1.49 %); assay type: functional
[24] = tested on: SK-OV-3; assay: Inhibition of cell migration in human SKOV3 cells at 0.6 uM incubated for 48 hrs by wound healing assay relative to control; assay type: functional; settings: SK-OV-3, 48 h
[25] = tested on: A549; assay: Antiinvasive activity against human A549 cells at 0.6 uM after 24 hrs by crystal violet staining based transwell assay relative to control; assay type: functional
[26] = tested on: SK-OV-3; assay: Induction of apoptosis in human SKOV3 cells assessed as early apoptotic cells at 5 uM by FITC staining based flow cytometry (reference value: 0.59 to 0.97 %); assay type: functional
[27] = tested on: SK-OV-3; assay: Antiinvasive activity against human SKOV3 cells at 0.6 uM after 24 hrs by crystal violet staining based transwell assay relative to control; assay type: functional
[28] = tested on: SK-OV-3; assay: Induction of apoptosis in human SKOV3 cells assessed as early apoptotic cells at 10 uM by FITC staining based flow cytometry (reference value: 0.59 to 0.97 %); assay type: functional
[29] = tested on: SK-OV-3; assay: Induction of apoptosis in human SKOV3 cells assessed as live cells at 10 uM by FITC staining based flow cytometry (reference value: 95.5 to 96 %); assay type: functional
[30] = tested on: SK-OV-3; assay: Induction of apoptosis in human SKOV3 cells assessed as late apoptotic cells at 10 uM by FITC staining based flow cytometry (reference value: 2.14 to 2.83 %); assay type: functional
[31] = tested on: SK-OV-3; assay: Induction of apoptosis in human SKOV3 cells assessed as necrotic cells at 5 uM by FITC staining based flow cytometry (reference value: 1.74 to 1.93 %); assay type: functional
[32] = tested on: SK-OV-3; assay: Induction of apoptosis in human SKOV3 cells assessed as late apoptotic cells at 5 uM by FITC staining based flow cytometry (reference value: 2.14 to 2.83 %); assay type: functional
[33] = tested on: SK-OV-3; assay: Induction of apoptosis in human SKOV3 cells assessed as necrotic cells at 10 uM by FITC staining based flow cytometry (reference value: 1.74 to 1.93 %); assay type: functional
[34] = tested on: SK-OV-3; assay: Induction of apoptosis in human SKOV3 cells assessed as live cells at 5 uM by FITC staining based flow cytometry (reference value: 95.5 to 96 %); assay type: functional
[35] = target: Programmed cell death protein 1/Programmed cell death 1 ligand 1 (Homo sapiens, UniProt Q15116+Q9NZQ7); assay: Inhibition of PD1 (unknown origin)/PDL1 (unknown origin) protein-protein interaction by HTRF assay; assay type: protein-complex assay
Chain of Programmed cell death protein 1/Programmed cell death 1 ligand 1 (Q15116 whole entry): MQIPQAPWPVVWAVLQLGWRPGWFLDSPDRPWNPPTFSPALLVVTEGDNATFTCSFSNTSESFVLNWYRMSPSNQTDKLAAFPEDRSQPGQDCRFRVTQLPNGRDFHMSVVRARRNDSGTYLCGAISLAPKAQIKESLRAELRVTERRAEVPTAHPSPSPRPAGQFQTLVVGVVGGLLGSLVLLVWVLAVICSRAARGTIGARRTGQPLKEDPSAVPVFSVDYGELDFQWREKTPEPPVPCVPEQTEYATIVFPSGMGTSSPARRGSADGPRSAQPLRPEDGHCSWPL
Chain of Programmed cell death protein 1/Programmed cell death 1 ligand 1 (Q9NZQ7 whole entry): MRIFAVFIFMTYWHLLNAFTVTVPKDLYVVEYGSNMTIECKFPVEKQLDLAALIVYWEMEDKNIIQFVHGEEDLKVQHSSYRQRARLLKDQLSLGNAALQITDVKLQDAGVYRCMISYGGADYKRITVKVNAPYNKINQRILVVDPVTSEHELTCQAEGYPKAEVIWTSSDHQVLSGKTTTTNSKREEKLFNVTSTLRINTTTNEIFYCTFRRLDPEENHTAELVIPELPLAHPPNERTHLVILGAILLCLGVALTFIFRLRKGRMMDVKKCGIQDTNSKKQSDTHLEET

Compound	IC50 [1] [µM]	IC50 [2] [µM]	IC50 [3] [µM]	IC50 [4] [µM]	IC50 [5] [µM]	Activity [6] [%]	inhibition [7]	Activity [8] [%]	selectivity ratio [9]	inhibition [10]	Activity [11] [%]	selectivity ratio [12]	selectivity ratio [13]	Activity [14] [%]	inhibition [15]	IC50 [16] [µM]	Activity [17] [%]	inhibition [18]	Activity [19] [%]	selectivity ratio [20]	further results
Cc1c(CNc2nc(NCCCN3CCOCC3)cc(N3CCOCC3)n2)cccc1-c1ccccc1	4.52	6.75	8.1	7	7.28	–	–	–	–	–	–	–	–	–	–	–	–	–	–	–	–
Cc1c(CNc2nc(NCCCN(C)C)cc(N3CCOCC3)n2)cccc1-c1ccccc1	–	–	–	–	–	92.7	Active	3.99	129	Active	81.7	112	213	1.28	Active	1050	18.2	Active	2.05	129	inhibition at 0.6 µM [21]: 53.4%; Activity [22]: 4.42%; Activity [23]: 3.76%; inhibition at 0.6 µM [24]: 39.6%; Activity [25]: 21.81%
CCN(CC)CCCNc1cc(N2CCOCC2)nc(NCc2cccc(-c3ccccc3)c2C)n1	–	–	–	–	–	–	Active	–	119	Active	–	114	165	–	Active	924	–	Active	–	119	–
Cc1c(CNc2nc(NCCCN3CCCCC3)cc(N3CCOCC3)n2)cccc1-c1ccccc1	–	–	–	–	–	–	Active	–	267	Active	–	185	295	–	Active	879	–	Active	–	267	Activity [26]: 0.85%; Activity [27]: 60%; Activity [28]: 1.49%; Activity [29]: 91.3%; Activity [30]: 4.98%; Activity [31]: 1.87%; Activity [32]: 2.31%; Activity [33]: 2.18%; Activity [34]: 95%

Second part, led by results:

IC50 [1] [µM]	IC50 [2] [µM]	IC50 [3] [µM]	IC50 [4] [µM]	IC50 [5] [µM]	Compound	Activity [6] [%]	inhibition [7]	Activity [8] [%]	selectivity ratio [9]	inhibition [10]	Activity [11] [%]	selectivity ratio [12]	selectivity ratio [13]	Activity [14] [%]	inhibition [15]	IC50 [16] [µM]	Activity [17] [%]	inhibition [18]	Activity [19] [%]	selectivity ratio [20]	further results
3.11	4.88	6.74	4.03	5.27	CCN(CC)CCCNc1cc(N2CCNCC2)nc(NCc2cccc(-c3ccccc3)c2C)n1	87.1	Active	6.33	278	Active	59.6	147	82	4.3	Active	579	14.6	Active	2.24	278	Activity [26]: 5%; Activity [27]: 66.68%; Activity [28]: 11.5%; Activity [29]: 54.5%; Activity [30]: 8.26%; Activity [31]: 3.16%; inhibition at 0.6 µM [21]: 42.4%; Activity [22]: 17.7%; Activity [23]: 8.19%; inhibition at 0.6 µM [24]: 68.6%; Activity [32]: 4.08%; Activity [33]: 25.7%; Activity [34]: 87.8%; IC50 [35]: 5.15 µM; Activity [25]: 70.23%
4.52	6.75	8.1	7	7.28	Cc1c(CNc2nc(NCCCN3CCCC3)cc(N3CCOCC3)n2)cccc1-c1ccccc1	–	Active	–	139	Active	–	103	198	–	Active	1050	–	Active	–	139	–

Reference: ChEMBL document CHEMBL4622943, “Design, synthesis and biological evaluation of 2-methyl-(1,1'-biphenyl)-pyrimidine conjugates” (Bioorg Med Chem Lett, 2020)
